From ChEMBL document CHEMBL1201862, “PubChem BioAssay data set” (2004)
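Protocol summary: plate cells (96-well), add compound at 5 concentrations, incubate 48 h, interpolate endpoints linearly. GI50 is the concentration that inhibits growth by half.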 Activity calls are given as the source filed them. Rule as the data show it: active = GI50 up to about 1.1 µM and inactive = higher. Where a SMILES comes first, the peptide text is derived from it. [ ]: non-standard residue; d: D form. Phe(4-Cl) = N[CH](Cc1ccc(Cl)cc1)C(=O)O

Tests used:
Experiment in all cases: DTP human tumour cell line panel, 48 h
SN12C = system: SN12C
NCI-H522 = system: NCI-H522
UACC-257 = system: UACC-257
TK-10 = system: TK-10
OVCAR-3 = system: OVCAR-3
OVCAR-8 = system: OVCAR-8
A549 = system: A549
UO-31 = system: UO-31
KM-20L2 = system: KM-20L2
UACC-62 = system: UACC-62
MOLT-4 = system: MOLT-4
SNB-19 = system: SNB-19
NCI-H226 = system: NCI-H226
A498 = system: A498
HOP-62 = system: HOP-62
SF-268 = system: SF-268
HOP-92 = system: HOP-92

Measured: GI50

CS(=O)(=O)NNS(=O)(=O)c1ccc(Cl)cc1
inactive: SN12C > 100 µM | NCI-H522 90.8 µM | UACC-257 > 100 µM | TK-10 > 100 µM | OVCAR-3 > 100 µM | OVCAR-8 > 100 µM | A549 > 100 µM | UO-31 35.6 µM | KM-20L2 > 100 µM | UACC-62 > 100 µM | MOLT-4 55.7 µM | SNB-19 > 100 µM | NCI-H226 11 µM | A498 > 100 µM | HOP-62 > 100 µM

Cc1ccc2c(c1)C(c1cccc3ccccc13)OC2=O (configuration not stated)
inactive: SN12C > 100 µM | NCI-H522 > 100 µM | UACC-257 53.8 µM | TK-10 31.6 µM | OVCAR-3 > 100 µM | SF-268 > 100 µM | OVCAR-8 84.5 µM | A549 89.3 µM | UO-31 > 100 µM | KM-20L2 > 100 µM | UACC-62 > 100 µM | MOLT-4 > 100 µM | SNB-19 64.7 µM | NCI-H226 42.9 µM | A498 26 µM | HOP-62 21.4 µM

O=c1c2ccc(Br)cc2nc(-c2ccccc2)n1NC1OC(CO)C(O)C(O)C1O (configuration not stated)
inactive: SN12C > 100 µM | HOP-92 > 100 µM | NCI-H522 > 100 µM | UACC-257 > 100 µM | TK-10 > 100 µM | OVCAR-3 > 100 µM | SF-268 > 100 µM | OVCAR-8 > 100 µM | A549 > 100 µM | UO-31 > 100 µM | KM-20L2 > 100 µM | UACC-62 > 100 µM | MOLT-4 57.3 µM | SNB-19 > 100 µM | NCI-H226 > 100 µM | A498 > 100 µM | HOP-62 59.3 µM

COc1ccc2c(c1)NC1(O)c3ccccc3C(=O)C21O (configuration not stated)
inactive: SN12C > 100 µM | HOP-92 > 100 µM | NCI-H522 > 100 µM | UACC-257 > 100 µM | TK-10 > 100 µM | OVCAR-3 > 100 µM | SF-268 > 100 µM | OVCAR-8 > 100 µM | A549 > 100 µM | UO-31 > 100 µM | KM-20L2 > 100 µM | UACC-62 > 100 µM | MOLT-4 > 100 µM | SNB-19 > 100 µM | NCI-H226 > 100 µM | A498 > 100 µM | HOP-62 > 100 µM

COC(=O)CCC(NC(=S)N/N=C/c1ccco1)C(=O)OC (configuration not stated)
inactive: SN12C > 100 µM | NCI-H522 > 100 µM | UACC-257 > 100 µM | TK-10 > 100 µM | OVCAR-3 > 100 µM | SF-268 > 100 µM | OVCAR-8 > 100 µM | A549 > 100 µM | UO-31 > 100 µM | KM-20L2 > 100 µM | UACC-62 > 100 µM | SNB-19 > 100 µM | NCI-H226 > 100 µM | A498 > 100 µM | HOP-62 > 100 µM

CC(=O)OCC(=O)[C@@]1(O)CC[C@H]2[C@@H]3CCC4=CC(=O)[C@H](C)C[C@]4(C)[C@H]3[C@@H](O)C[C@@]21C
inactive: SN12C > 100 µM | HOP-92 > 100 µM | NCI-H522 > 100 µM | UACC-257 > 100 µM | TK-10 > 100 µM | OVCAR-3 > 100 µM | SF-268 > 100 µM | OVCAR-8 > 100 µM | A549 > 100 µM | KM-20L2 > 100 µM | UACC-62 > 100 µM | SNB-19 > 100 µM | NCI-H226 > 100 µM | A498 > 100 µM | HOP-62 > 100 µM

COC(=N)c1csc(C2OC(CO)C(O)C2O)n1 (configuration not stated)
inactive: SN12C > 100 µM | HOP-92 > 100 µM | NCI-H522 > 100 µM | UACC-257 > 100 µM | TK-10 > 100 µM | OVCAR-3 > 100 µM | SF-268 > 100 µM | OVCAR-8 > 100 µM | A549 > 100 µM | UO-31 50.7 µM | KM-20L2 > 100 µM | UACC-62 > 100 µM | MOLT-4 61.9 µM | SNB-19 > 100 µM | NCI-H226 > 100 µM | A498 > 100 µM | HOP-62 > 100 µM

O=C1c2ccccc2C(Br)(Br)c2ccccc21
inactive: SN12C > 31.6 µM | HOP-92 > 100 µM | NCI-H522 25.4 µM | UACC-257 > 100 µM | TK-10 > 100 µM | OVCAR-3 > 31.6 µM | SF-268 25.5 µM | OVCAR-8 > 100 µM | A549 > 31.6 µM | UO-31 > 31.6 µM | KM-20L2 > 100 µM | UACC-62 > 100 µM | MOLT-4 > 31.6 µM | SNB-19 > 31.6 µM | NCI-H226 > 31.6 µM | A498 > 10 µM | HOP-62 > 10 µM

COC(=O)C1(F)C(=O)NC(=O)NC1OC (configuration not stated)
inactive: SN12C 69 µM | HOP-92 45.7 µM | NCI-H522 75.5 µM | UACC-257 > 100 µM | TK-10 > 100 µM | OVCAR-3 94.2 µM | SF-268 45.4 µM | OVCAR-8 34.1 µM | A549 5.92 µM | UO-31 70.8 µM | KM-20L2 50.9 µM | UACC-62 18.6 µM | MOLT-4 > 100 µM | SNB-19 > 100 µM | NCI-H226 > 100 µM | A498 > 100 µM | HOP-62 25.5 µM

CC(C)NC(=O)CCN(C(=O)O)S(=O)(=O)c1ccc(NC(=O)c2ccccc2)cc1
inactive: SN12C > 100 µM | HOP-92 > 100 µM | NCI-H522 > 100 µM | UACC-257 > 51.9 µM | TK-10 > 100 µM | OVCAR-3 > 100 µM | SF-268 > 54.5 µM | OVCAR-8 > 54.5 µM | A549 > 50.1 µM | UO-31 > 100 µM | KM-20L2 > 100 µM | UACC-62 > 45.5 µM | MOLT-4 > 41.2 µM | SNB-19 > 100 µM | NCI-H226 > 100 µM | A498 > 100 µM | HOP-62 > 100 µM

Cc1ccccc1/N=C/c1ccc(N(CCC#N)S(=O)(=O)c2ccccc2)cc1
inactive: SN12C > 100 µM | HOP-92 > 100 µM | NCI-H522 70.1 µM | UACC-257 > 100 µM | TK-10 > 100 µM | OVCAR-3 > 100 µM | SF-268 > 100 µM | OVCAR-8 > 100 µM | A549 > 100 µM | UO-31 > 100 µM | KM-20L2 > 100 µM | UACC-62 > 100 µM | MOLT-4 > 100 µM | SNB-19 > 100 µM | NCI-H226 > 100 µM | A498 > 100 µM | HOP-62 > 100 µM

CCCCCC1C2C(=O)NC(=O)C1C(=O)NC2=O (configuration not stated)
inactive: SN12C > 100 µM | HOP-92 > 100 µM | NCI-H522 > 100 µM | UACC-257 > 100 µM | TK-10 > 100 µM | OVCAR-3 > 100 µM | SF-268 > 100 µM | OVCAR-8 > 100 µM | A549 > 100 µM | UO-31 > 100 µM | KM-20L2 > 100 µM | UACC-62 > 100 µM | MOLT-4 > 100 µM | SNB-19 > 100 µM | NCI-H226 > 100 µM | A498 > 100 µM | HOP-62 > 100 µM

CC1=NN(C(=O)c2ccc(Cl)cc2)C(=O)/C1=C/c1ccc(O)cc1
inactive: SN12C > 100 µM | HOP-92 > 100 µM | NCI-H522 > 100 µM | UACC-257 > 100 µM | TK-10 > 100 µM | OVCAR-3 > 100 µM | SF-268 > 100 µM | OVCAR-8 > 100 µM | A549 > 100 µM | UO-31 > 100 µM | KM-20L2 > 100 µM | UACC-62 > 100 µM | MOLT-4 > 100 µM | SNB-19 > 100 µM | NCI-H226 > 100 µM | A498 > 100 µM | HOP-62 > 100 µM

COc1ccc2c(c1)[n+]([O-])c(C(=O)CC(=O)C(=O)Nc1cccc(Cl)c1C)c(C)[n+]2[O-]
inactive: SN12C > 100 µM | HOP-92 > 100 µM | NCI-H522 26.2 µM | UACC-257 > 100 µM | TK-10 > 100 µM | OVCAR-3 27.3 µM | SF-268 > 100 µM | OVCAR-8 > 100 µM | A549 > 100 µM | UO-31 > 100 µM | KM-20L2 > 100 µM | UACC-62 > 100 µM | MOLT-4 49.4 µM | SNB-19 > 100 µM | NCI-H226 > 100 µM | A498 > 100 µM | HOP-62 > 100 µM

CC(O)C(NC(=O)C(Cc1ccccc1)NC(=O)C(NC(=O)C(CCCCN)NC(=O)C(Cc1c[nH]c2ccccc12)NC(=O)C(Cc1ccc(O)cc1)NC(=O)C(Cc1ccc(Cl)cc1)NC(=O)C(N)Cc1ccccc1)C(C)O)C(N)=O (configuration not stated) (H-F[Phe(4-Cl)]YWKTFT-NH2; configuration not given here)
inactive: SN12C 41.8 µM | UACC-257 > 10 µM | OVCAR-3 17.4 µM | OVCAR-8 23.9 µM | A549 16.2 µM | UO-31 19 µM | KM-20L2 21.2 µM | UACC-62 19.1 µM | MOLT-4 25.9 µM | SNB-19 18.4 µM | A498 18.8 µM | HOP-62 20.5 µM

NC(=S)/N=C(/c1nc2ccc(Cl)cc2nc1O)C(O)c1ccccc1Cl (configuration not stated)
inactive: HOP-92 > 100 µM | NCI-H522 > 100 µM | UACC-257 > 100 µM | TK-10 > 100 µM | SF-268 > 100 µM | OVCAR-8 > 100 µM | A549 > 100 µM | UO-31 > 100 µM | KM-20L2 > 100 µM | UACC-62 > 100 µM | MOLT-4 > 100 µM | NCI-H226 > 100 µM | A498 > 100 µM | HOP-62 > 100 µM
